Data as given in US20210283163A1, “COMPOSITIONS AND METHODS FOR THE TREATMENT OF ACUTE AND CHRONIC PRURITIS” (Duke University, priority 2018, published 2021).

Key:
[1] = biological target: T1, TRPV4 (Mus musculus, UniProt Q9EPK8); test: Whole-cell patch clamp in CHO cells transfected with mouse Trpv4 cDNA; format: cell-based; details: miR-711 10 μM; GSK1016790A 1 μM
T1 construct: expressed in transfected cells; host or cells: CHO cells (ATCC CRL-9096), plasmid pcDNA3.1-mTrpv4, a gift from Korea University
Protocol: (§1) Constructs. The cDNAs of mouse pcDNA3.1-Trpa1, pcDNA3.1-Trpv1, pcDNA3.1-Trpv2, pcDNA3.1-Trpv3, and pcDNA3.1-Trpv4 were kindly provided Dr. Sun Work Hwang from Korea University. Mouse Trpa1 cDNA was subcloned into pCGN-HA backbone (Addgene) using In-Fusion HD Cloning Kit (Clontech Laboratories, CA). Q5 Site-Directed Mutagenesis Kit was used to generate mTrpa1 mutant (M1-M13) based on pCGN-mTrpa1.
(§2) Cell Culture and Transfection. CD4^+ Myla cell line was cultured in RPMI 1640 media (GIBCO), supplemented with 2 mM Glutamine (GIBCO), 100 U/mL IL-2 (Sigma), 100 U/mL IL-4 (Sigma), and 10% human AB serum (Sigma). HuT 102 cell line was cultured in RPMI 1640 supplemented with pyruvate, HEPES, and 10% (v/v) fetal bovine serum (HyClone). HEK293-hTRPA1 stable cell line was cultured in MEM (GIBCO) containing 2 mM Glutamine, 4 μg/mL Blasticidin, 10% FBS (v/v). B16 and CHO cells were cultured in high glucose (4.5 g/L) Dulbecco's Modified Eagle's Medium (GIBCO) containing 10% (v/v) fetal bovine serum (GIBCO). Culture media were supplemented with 50 units/mL of penicillin and 50 μg/mL streptomycin, and cultures were maintained with 5% CO2 in 37° C. incubator. Transfection (2 μg cDNA) was performed with Lipofectamine™ 2000 Reagent (Invitrogen) at 80% confluency and the transfected cells were cultured in the same media for 48 hr before electrophysiological and biochemical studies. […]

[2] = biological target: T2, TRPV2 (Mus musculus, UniProt Q9WTR1); test: Whole-cell patch clamp in CHO cells transfected with mouse Trpv2 cDNA; format: cell-based; details: miR-711 10 μM; cannabidiol 100 μM
T2 construct: expressed in transfected cells; host or cells: CHO cells (ATCC CRL-9096), plasmid pcDNA3.1-mTrpv2, a gift from Korea University
T2 sequence (Q9WTR1 1-756): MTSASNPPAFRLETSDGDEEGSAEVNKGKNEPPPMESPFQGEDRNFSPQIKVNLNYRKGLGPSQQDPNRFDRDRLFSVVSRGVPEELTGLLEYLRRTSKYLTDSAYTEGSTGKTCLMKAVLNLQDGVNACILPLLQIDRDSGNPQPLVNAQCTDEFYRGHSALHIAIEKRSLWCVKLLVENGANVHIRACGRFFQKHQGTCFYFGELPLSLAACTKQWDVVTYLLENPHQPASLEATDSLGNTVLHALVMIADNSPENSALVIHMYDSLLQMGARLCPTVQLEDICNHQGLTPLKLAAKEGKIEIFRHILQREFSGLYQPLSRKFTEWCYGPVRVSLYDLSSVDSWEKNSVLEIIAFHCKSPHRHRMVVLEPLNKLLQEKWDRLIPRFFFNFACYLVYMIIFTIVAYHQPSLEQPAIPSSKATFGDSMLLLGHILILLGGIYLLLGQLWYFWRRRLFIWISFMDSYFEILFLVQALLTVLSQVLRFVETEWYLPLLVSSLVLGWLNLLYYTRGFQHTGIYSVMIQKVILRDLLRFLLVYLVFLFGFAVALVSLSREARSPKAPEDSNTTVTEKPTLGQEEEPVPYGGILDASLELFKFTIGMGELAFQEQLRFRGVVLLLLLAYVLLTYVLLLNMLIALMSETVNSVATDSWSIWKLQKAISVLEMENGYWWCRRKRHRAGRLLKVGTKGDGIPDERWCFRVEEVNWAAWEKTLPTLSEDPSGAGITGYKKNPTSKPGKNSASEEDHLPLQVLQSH
Protocol: as §1, §2

[3] = biological target: T3, TRPV1 (Mus musculus, UniProt Q704Y3); test: Whole-cell patch clamp in CHO cells transfected with mouse Trpv1 cDNA; format: cell-based; details: miR-711 10 μM; capsaicin 50 nM
T3 construct: expressed in transfected cells; host or cells: CHO cells (ATCC CRL-9096), plasmid pcDNA3.1-mTrpv1, a gift from Korea University
Protocol: as §1, §2

[4] = test system: mice; test: Evans blue extravasation, neurogenic inflammation in a hind paw; format: in vivo, mouse; details: intraplantar, 10 μL; capsaicin 1 mM, AITC 5 mM, miR-711 1 mM
Protocol: Evans Blue Extravasation. To examine neurogenic inflammation in a hind paw (Han et al., Neuron 2016, 92, 1279-1293), mice were anesthetized with 5% isoflurane. Evans blue (50 mg/kg body weight) was given intravenously 10 min before neurogenic irritant application. […] Evans blue was extracted from the tissues by incubation in 400 μL formamide at 37° C. for 48 hr. Evans blue was quantified by measuring the optical density of the formamide extract at 620 nm. Absorbance was normalized to per gram of tissue weight.

[5] = biological target: T4, hTRPA1 (Homo sapiens, UniProt O75762); test: Whole-cell patch clamp, inward currents in HEK293 cells expressing hTRPA1; format: cell-based; details: peptide 25 μM
Protocol: Cell Culture and Transfection. CD4^+ Myla cell line was cultured in RPMI 1640 media (GIBCO), supplemented with 2 mM Glutamine (GIBCO), 100 U/mL IL-2 (Sigma), 100 U/mL IL-4 (Sigma), and 10% human AB serum (Sigma). HuT 102 cell line was cultured in RPMI 1640 supplemented with pyruvate, HEPES, and 10% (v/v) fetal bovine serum (HyClone). HEK293-hTRPA1 stable cell line was cultured in MEM (GIBCO) containing 2 mM Glutamine, 4 μg/mL Blasticidin, 10% FBS (v/v). B16 and CHO cells were cultured in high glucose (4.5 g/L) Dulbecco's Modified Eagle's Medium (GIBCO) containing 10% (v/v) fetal bovine serum (GIBCO). Culture media were supplemented with 50 units/mL of penicillin and 50 μg/mL streptomycin, and cultures were maintained with 5% CO2 in 37° C. incubator. Transfection (2 μg cDNA) was performed with Lipofectamine™ 2000 Reagent (Invitrogen) at 80% confluency and the transfected cells were cultured in the same media for 48 hr before electrophysiological and biochemical studies.
Whole-Cell Patch Clamp Recordings in HEK293 Cells, CHO Cells, and DRG Neurons. Whole-cell patch clamp recordings were performed at room temperature using an Axopatch-200B amplifier (Axon Instruments) with a Digidata 1440B (Axon Instruments). In this study, we only examined small-diameter mouse DRG neurons (<25 μM) and small-diameter human DRG neurons (<55 μM). The patch pipettes were pulled from borosilicate capillaries (World Precision Instruments) using a P-97 Flaming/Brown micropipette puller (Sutter Instrument). Pipette resistance was 4-6 MΩ for whole-cell and outside-out recording. For inward current recordings in mouse and human DRG neurons, HEK293 cells, and CHO cells, the internal solution contains (in mM): 140 CsCl, 10 EGTA, 10 HEPES, and 2 Mg-ATP, adjusted to pH 7.3 with CsOH. Whole cell recordings were performed in an extracellular solution that contains (in mM): 140 NaCl, 5 KCl, 2 MgCl2, 10 HEPES, and 10 glucose, adjusted to pH 7.4 with NaOH and osmolarity to 300-310 mOsm. […] Action potential recordings were performed in small-diameter DRG neurons, with the following solutions: i) internal pipette solution contains: 126 mM K-gluconate, 10 mM NaCl, 1 mM MgCl2, 10 mM EGTA, 10 mM HEPES and 2 mM Na-ATP, adjusted to pH 7.4 with KOH and osmolarity to 295-300 mOsm), and ii) extracellular solution contains: 140 mM NaCl, 5 mM KCl, 2 mM MgCl2, 2 mM CaCl2, 10 mM HEPES, 10 mM glucose, adjusted to pH 7.4 with KOH.

[6] = biological target: T4, hTRPA1; test: RNA pull-down assay and immunoblotting; format: binding; details: RNA pull-down
Protocol: RNA Pull-Down Assay and Immunoblotting. hTRPA1-expressing HEK293 cells of equal amount (5×10^6) were plated onto 60 mm dishes, and 24 hr later, these cells were incubated with biotin-conjugated miR-711 or miR-711 (m6) in extracellular solution containing 140 mM NaCl, 5 mM KCl, 2 mM CaCl2, 1 mM MgCl2, 10 mM HEPES, and 10 mM glucose, adjusted to pH 7.4 for 15 min at 37° C. with 5% CO2. For crosslinking, 1% formaldehyde (vol/vol) was added at 37° C. for 10 min, then 12.5% glycine was applied to stop crosslinking by 5 min incubation at room temperature. Then the cells were collected and sonicated with ultrosonic probe sonicator (80% output, 5 s on and 10 s off) in 1 mL lysis buffer (1% Triton X-100, 50 mM Tris-HCl, 150 mM NaCl, 5 mM EDTA, pH7.4) on ice for 2 min. We then centrifuged the lysate at 13,000 rpm for 10 min at 4° C. and took 50 μL supernatant as lysate control. The remaining supernatant was added 20 μL streptadvilin agrose beads and incubated overnight. The pellets were collected after centrifuge at 6000 rmp for 30 s. For competing assay, miR-711 (10-50 μM) or mutant miR-711 (m6, 10-50 μM) were added 15 min before the incubation with biotin-conjugated miR-711 (10 μM). For immunoblotting, the lysates or beads were incubated in SDS-PAGE loading buffer for 30 min at 50° C., and supernatant was collected after centrifugation at 13000 rpm and decrosslink at 99° C. for 20 min. The samples were separated on an SDS-PAGE gel, transferred, and probed with TRPA1 antibody (1:1000; Alomone labs). The immunoreactive bands were detected with horseradish peroxidase-conjugated secondary antibody, visualized with enhanced chemiluminescence (Thermo scientific, Pittsburgh, Pa.), and quantified with Image-Pro Plus software (Media Cybernetics, Bethesda, Md.). Each experiment was repeated at least three times.

[7] = test system: mice; test: Acute pruritus induced by intradermal pruritogens, effect of peptides; format: in vivo, mouse; details: peptide 2 mM, 15 μL intradermal; mmu-miR-711 1 mM, 10 μL
Protocol: (§3) Behavioral Assessment for Scratching (Itch) and Wiping (Pain). Mice were shaved on the cheek or nape after a brief anesthesia with isoflurane. Before experiments, mice were habituated in small plastic chambers (14×18×12 cm) daily for two days. The room temperature and humidity remained stable for all the experiments. […] After the injection, the number of scratches in 60 min was counted. A scratch was counted when a mouse lifted its hind paw to scratch the shaved region and returned the paw to the floor or to the mouth. A bout of wiping was defined as a continuous wiping movement with a forepaw directing at the area of the injection area (Shimada and LaMotte, Pain 2008, 139, 681-687). Scratching and wiping behavior was videoed for 30 min or 60 min using Sony HDR-CX610 camera. The video was subsequently played back offline and the numbers of scratches and wipes were quantified in a blinded manner.

[8] = test system: CTCL mice; test: Mouse CTCL xenograft model of chronic itch; format: in vivo; details: given 20 days after Myla cell inoculation; hsa-miR-711 inhibitor 100 μM, HC030031 200 μM, A967079 50 μM, peptides 2 mM
Protocol: Mouse CTCL Xenograft Model of Chronic Itch. We developed a murine xenograft model of cutaneous T cell lymphoma (CTCL) using immune-deficient mice (NOD.CB17-Prkdcscid, 8-10 weeks old, male). CD4^+ MyLa cell line was purchased from Sigma (Ca #95051032). The cell line was established from a plaque biopsy of a person with mycosis fungoides stage II by inclusion of IL-2 and IL-4 in the culture medium. CTCL was generated via intradermal injection of CD4^+ Myla cells (1×10^5 cells/μl, 100 μL) on the nape of the neck. Tumor growth was assessed for 40 days by measurements of tumor diameters.
as §3
Generation of Myla Stable Cell Line Expressing miR-711 Inhibitor. CD4^+ Myla cells were plated at a density of 2×10^5 cells/mL in 2 mL culture media in 6-well plates. For each well, 20 μL of the MISSION Lenti microRNA Inhibitor (hsa-miR-711) lentivirus (Sigma) with a titer of 2.6×10^7 Tu/mL were added. Cell mixtures were incubated at 37° C. for 48 hr, washed with PBS three times, and re-suspended in fresh culture media, and 24 hr later, 1 μg/mL puromycin was added to the cells to select stably transduced cell populations. We tried to grow and passage the cells as much as necessary (usually 3 days) and maintained selection pressure by keeping 1 μg/mL puromycin in the medium. After 4 weeks, a large number of the cells were killed; the remaining cells retained the expression of the plasmid, which stably integrates into the genome of the targeted cells. These cells were used for inoculation to generate the CTCL model for testing the effects of miR-711 inhibitor on chronic itch and tumor growth.

[9] = test system: mice; test: Persistent itch after intradermal adenovirus (AV) overexpression of hsa-miR-711; format: in vivo, mouse; details: 10 days after the AV injection, A-967079 50 μM, hsa-miR-711 inhibitor 100 μM, blocking peptide 2 μM
Protocol: as §3
miRNA Measurement by Quantitative Real-Time RT-PCR (qPCR). Total RNA was isolated from serum of CTCL mice or adenovirus-treated mice using Qiazol Lysis Reagent (QIAGEN) together with miRNeasy Serum/Plasma Kit (Park et al., Neuron 2014, 82, 47-54). All RNA samples were immediately used or kept at −80° C. until further processing. To convert mature miRNA into cDNA, 6 μl of total RNA solution were reverse transcribed using the miScript II RT Kit (including polyadenylation of miRNAs and reverse transcription using an oligo-dT that binds to a universal RT-sequence). Specific miRNA levels were quantified by qPCR using miScript SYBR Green Kit including miScript miRNA assay for hsa-miR-711, hsa-miR21, hsamiR155, and hsa-miR-326, together with the universal RT primer, according to the manufacturer's protocol (CFX96 Real-Time system, Bio-Rad). Relative quantities of miRNAs were calculated using the Ct value after normalization to control miRNAs. Caenorhabditis elegans miRNA-39 (cel-miRNA-39) was included as spiked-in control for extracellular miRNA.

T4 sequence (O75762 whole entry): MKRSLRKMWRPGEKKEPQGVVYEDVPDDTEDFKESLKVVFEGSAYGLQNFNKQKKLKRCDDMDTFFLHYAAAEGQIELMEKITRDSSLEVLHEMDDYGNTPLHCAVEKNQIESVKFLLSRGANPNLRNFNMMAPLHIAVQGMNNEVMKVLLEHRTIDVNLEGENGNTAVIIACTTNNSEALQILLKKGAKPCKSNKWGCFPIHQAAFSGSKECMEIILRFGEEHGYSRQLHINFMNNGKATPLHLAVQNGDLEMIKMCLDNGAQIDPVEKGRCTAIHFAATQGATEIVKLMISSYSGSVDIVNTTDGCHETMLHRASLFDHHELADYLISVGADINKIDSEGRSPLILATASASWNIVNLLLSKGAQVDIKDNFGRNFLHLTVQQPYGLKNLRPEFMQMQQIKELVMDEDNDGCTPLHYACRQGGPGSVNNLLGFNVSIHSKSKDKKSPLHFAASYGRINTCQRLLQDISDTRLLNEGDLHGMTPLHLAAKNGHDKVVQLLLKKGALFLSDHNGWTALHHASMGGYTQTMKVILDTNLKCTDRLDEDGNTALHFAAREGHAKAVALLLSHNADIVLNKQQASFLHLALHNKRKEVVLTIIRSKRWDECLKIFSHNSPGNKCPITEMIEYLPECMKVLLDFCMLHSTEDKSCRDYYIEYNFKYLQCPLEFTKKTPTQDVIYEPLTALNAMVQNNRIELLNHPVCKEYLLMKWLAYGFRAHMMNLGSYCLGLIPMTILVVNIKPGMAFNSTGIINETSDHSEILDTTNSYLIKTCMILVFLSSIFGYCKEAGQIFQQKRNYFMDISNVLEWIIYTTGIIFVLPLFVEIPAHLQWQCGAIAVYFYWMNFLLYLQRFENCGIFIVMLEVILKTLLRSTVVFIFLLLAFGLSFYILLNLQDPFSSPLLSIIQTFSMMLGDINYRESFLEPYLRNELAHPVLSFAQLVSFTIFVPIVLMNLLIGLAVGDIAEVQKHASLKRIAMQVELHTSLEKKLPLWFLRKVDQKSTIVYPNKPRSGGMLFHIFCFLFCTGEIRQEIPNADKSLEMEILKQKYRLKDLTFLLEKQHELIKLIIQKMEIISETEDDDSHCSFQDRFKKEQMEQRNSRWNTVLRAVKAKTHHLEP
T3 sequence (Q704Y3 whole entry): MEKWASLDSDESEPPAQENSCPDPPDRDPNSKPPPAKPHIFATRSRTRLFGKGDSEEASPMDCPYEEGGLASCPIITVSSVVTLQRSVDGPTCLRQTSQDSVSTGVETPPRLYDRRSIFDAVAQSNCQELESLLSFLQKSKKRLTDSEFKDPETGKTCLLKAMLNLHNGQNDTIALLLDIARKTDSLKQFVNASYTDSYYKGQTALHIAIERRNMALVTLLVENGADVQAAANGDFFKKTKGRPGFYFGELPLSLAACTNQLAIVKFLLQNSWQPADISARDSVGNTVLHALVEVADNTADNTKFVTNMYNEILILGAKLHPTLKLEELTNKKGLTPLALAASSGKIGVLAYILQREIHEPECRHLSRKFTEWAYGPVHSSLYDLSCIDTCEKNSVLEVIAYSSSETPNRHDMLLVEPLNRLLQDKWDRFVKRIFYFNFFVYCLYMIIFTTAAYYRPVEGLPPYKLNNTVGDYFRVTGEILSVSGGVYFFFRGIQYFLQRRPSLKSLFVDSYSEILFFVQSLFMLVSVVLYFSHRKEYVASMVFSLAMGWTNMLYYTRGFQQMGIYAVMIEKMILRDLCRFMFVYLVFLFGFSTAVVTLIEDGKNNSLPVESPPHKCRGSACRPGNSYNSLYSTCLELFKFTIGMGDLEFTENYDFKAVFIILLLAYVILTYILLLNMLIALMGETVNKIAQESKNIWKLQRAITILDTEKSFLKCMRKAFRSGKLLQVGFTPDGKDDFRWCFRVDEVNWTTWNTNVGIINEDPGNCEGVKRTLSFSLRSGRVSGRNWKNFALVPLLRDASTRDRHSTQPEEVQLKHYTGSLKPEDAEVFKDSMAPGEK
T1 sequence (Q9EPK8 whole entry): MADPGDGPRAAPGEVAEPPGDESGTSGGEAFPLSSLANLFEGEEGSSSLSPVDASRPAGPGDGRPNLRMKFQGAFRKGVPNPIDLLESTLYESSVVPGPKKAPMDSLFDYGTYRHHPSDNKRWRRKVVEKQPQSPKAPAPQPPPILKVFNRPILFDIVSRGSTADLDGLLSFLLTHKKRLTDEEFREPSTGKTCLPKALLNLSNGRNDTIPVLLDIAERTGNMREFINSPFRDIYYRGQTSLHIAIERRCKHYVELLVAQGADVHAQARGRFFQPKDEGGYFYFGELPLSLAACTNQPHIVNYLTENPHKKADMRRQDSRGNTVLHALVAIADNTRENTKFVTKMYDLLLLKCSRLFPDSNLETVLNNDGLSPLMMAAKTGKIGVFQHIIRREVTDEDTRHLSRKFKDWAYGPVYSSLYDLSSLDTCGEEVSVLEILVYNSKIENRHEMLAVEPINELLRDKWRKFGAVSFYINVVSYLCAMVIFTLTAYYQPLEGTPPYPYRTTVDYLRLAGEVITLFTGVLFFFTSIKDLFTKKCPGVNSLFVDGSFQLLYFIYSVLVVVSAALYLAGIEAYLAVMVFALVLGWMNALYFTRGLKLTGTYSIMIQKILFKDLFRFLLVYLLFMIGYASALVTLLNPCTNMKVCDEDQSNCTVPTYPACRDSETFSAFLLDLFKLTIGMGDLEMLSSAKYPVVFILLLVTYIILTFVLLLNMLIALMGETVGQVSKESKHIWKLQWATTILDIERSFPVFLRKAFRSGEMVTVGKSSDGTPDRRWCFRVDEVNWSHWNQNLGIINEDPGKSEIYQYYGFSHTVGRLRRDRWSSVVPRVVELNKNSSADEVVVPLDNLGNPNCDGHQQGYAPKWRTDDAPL

CC(C)C[C@H](NC(=O)c1cc2ccccc2s1)C(=O)N1CCN(C(=O)[C@H](CO)NS(=O)(=O)c2ccc(Cl)cc2Cl)CC1 [GSK1016790A]
inward currents [1]: inward currents induced

C=C(C)[C@@H]1CCC(C)=C[C@H]1c1c(O)cc(CCCCC)cc1O [cannabidiol]
inward currents [2]: inward currents induced

COc1cc(CNC(=O)CCCC/C=C/C(C)C)ccc1O [capsaicin]
inward currents [3]: inward currents induced
neurogenic inflammation in hind paws (Evans blue test) [4]: elicited robust neurogenic inflammation

NH2-FRNELAAAVATFGQL-COOH (H-FRNELAAAVATFGQL-OH) [mutated peptide]
inhibition of miR-711-induced TRPA1 inward currents [5]: nor did this peptide inhibit
disruption of the miR-711/TRPA1 interaction [6]: Neither did this mutated peptide block
effect on miR-711-induced pruritus [7]: nor did this peptide inhibit

miR-711 inhibitor: hsa-miR-711 inhibitor with a complementary sequence to hsa-miR-711: cuuacgucucucccuggguccc (SEQ ID NO: 22) (CUUACGUCUCUCCCUGGGUCCC; listed as RNA, chemistry not given here)
effect on CTCL-evoked chronic itch [8]: reduced chronic pruritus
effect on hsa-miR-711 AV-induced persistent itch [9]: Inhibition
